Reference: US11510886B2, “Metformin amino acid compounds and methods of using the same” (Laboratorios Silancs S.A. DE C.V., priority 2016, dated 2022)
Like-named read-outs stand apart in the source and are kept apart here.

Columns and labels:
[1] = rat, in vivo, po, 250 mg/kg
[2] = for Body weight (g) On administration day / Body weight (g) On distribution day / Body weight (g) On first administration day: Mean ± SD; for Body weight (g) On distribution day: before dosing
[3] = system: rat model of streptozotocin-induced diabetes; conditions: about 18 hours after last administration, fasted; Dunnet test
[4] = terms of European Pharmacopeia 7.0 section 5.11
[5] = STZ-diabetic male rats, mean ± SD; for Absolute body weight, Day −3 (before STZ administration): baseline before STZ and before first TI/RI administration; for Absolute body weight, Day −1 / Absolute body weight, Day −2 (distribution of groups): before first TI/RI administration
[6] = system: blood glucose level; assay: Effect of metformin compounds on the glucokinetic profile after oral glucose overload; type: in vivo, Rat; conditions: for Blood glucose level, 3 h post-glucose overload: *p<0.05, **p<0.01 vs vehicle
[7] = system: rat model of streptozotocin-induced diabetes; assay: Blood glucose levels in rat model of streptozotocin-induced diabetes, 14 days oral; conditions: for Blood glucose levels before TI/RI administration, Day −1: STZ-diabetic rats, before first TI/RI administration, n.d. = all values beyond ULOD of glucometer (600 mg/dl), § n=1, ¢ n=2; for Blood glucose levels before TI/RI administration, Day −1 / Blood glucose levels before TI/RI administration, Day −3 (before STZ administration): mean ± SD; for Blood glucose levels before TI/RI administration, Day −3 (before STZ administration): rats, baseline before STZ and before first TI/RI administration
[8] = diabetic rats, 14 days daily oral
[9] = system: GPBP, LKB1/STRADα/MO25, AMPK, AS160; assay: In vitro phosphorylation of GPBP with LKB1 complex, AMPK and AS160; conditions: LKB1 complex without GPBP
[10] = system: GLUT4; assay: GPBP-1 and GLUT4 distribution in C2C12 cells (FIGS. 77 and 78); type: cell-based, Mice
Experimental: FIG. 77. Effects of no treatment, insulin, SLN1, SLN1 and insulin, SLN10, and SLN10 and insulin on GPBP-1 and GLUT-4 distribution in non-fused C2C12 cells after a 30 minute treatment.
FIG. 78. C2C12 cells that expressed GLUT4-GFP constitutively were incubated with SLN1 or SLN10 10 mM, or with the corresponding vehicle (control), and GLUT4 distribution was analyzed by using immunofluorescence and confocal microscopy.

[11] = Groups L-U, 750 mg/kg, first column of this head
[12] = Groups L-U, 750 mg/kg, second column of this head
[13] = rat, 750 mg/kg referred to metformin base, mean ± SD, *p<0.05 vs vehicle
[14] = rat, 750 mg/kg referred to metformin base, mean ± SD

## CN(C)C(=N)NC(=N)N.NC(=O)C[C@H](N)C(=O)O [Metformin asparaginate, metformin asparaginate]
[1]
  AUC(0-24): 153.76 µg·h/mL
  Cmax: 16270 ng/mL
  Metformin base concentration in plasma, 0.5 h post-administration: 10.72 ± 2.33 µg/mL
  Metformin base concentration in plasma, 1 h post-administration: 8.40 ± 1.12 µg/mL
  Metformin base concentration in plasma, 2 h post-administration: 9.74 ± 1.24 µg/mL
  Metformin base concentration in plasma, 4 h post-administration: 16.27 ± 2.89 µg/mL
  Metformin base concentration in plasma, 8 h post-administration: 7.56 ± 1.49 µg/mL
  Metformin base concentration in plasma, 24 h post-administration: 0.39 ± 0.13 µg/mL
[2]; Groups B-K, 250 mg/kg
  Body weight (g) On administration day: 191.98 ± 10.26 g
  Body weight (g) On distribution day: 186.85 ± 11.32 g
[2]; Groups L-U, 750 mg/kg
  Body weight (g) On distribution day: 188.40 ± 10.50 g
[2]; [11]
  Body weight (g) On first administration day: 201.60 ± 5.61 g
[2]; [12]
  Body weight (g) On first administration day: 196.93 ± 10.40 g
[3]
  plasma glucose levels at the time of sacrifice: significantly higher
[4]
  Physical form (hygroscopicity): Deliquescent
[5]
  Absolute body weight, Day −3 (before STZ administration): 233.47 ± 15.23 g
  Absolute body weight, Day −1: 209.73 ± 12.66 g
  Absolute body weight, Day −2 (distribution of groups): 214.13 ± 12.67 g
[6]; 750 mg/kg for five days, glucose 3 g/kg, isolated time points 0.25-4 hours, Dunn's test
  blood glucose level vs vehicle, after the oral glucose overload: statistically significant decreases
[6]; [13]
  Blood glucose level, 0.25 h post-glucose overload: 94.50 ± 24.31 mg/dL
  Blood glucose level, 4 h post-glucose overload: 87.00 ± 8.60 mg/dL
  Blood glucose level, pre-glucose overload: 86.50 ± 14.62 mg/dL
[6]; [14]
  Blood glucose level, 0.5 h post-glucose overload: 93.75 ± 19.14 mg/dL
  Blood glucose level, 2 h post-glucose overload: 80.00 ± 10.68 mg/dL
  Blood glucose level, 3 h post-glucose overload: 86.50 ± 2.65 mg/dL
  Blood glucose level, 6 h post-glucose overload: 78.50 ± 16.03 mg/dL
[7]
  Blood glucose levels before TI/RI administration, Day −1: 573.00^§ ± n.d.^§ mg/dL
  Blood glucose levels before TI/RI administration, Day −3 (before STZ administration): 116.33 ± 5.51 mg/dL

## CC(C)[C@H](N)C(=O)O.CN(C)C(=N)NC(=N)N [Metformin valinate, metformin valinate]
[1]
  AUC(0-24): 123.05 µg·h/mL
  Cmax: 13700 ng/mL
  Metformin base concentration in plasma, 0.5 h post-administration: 8.75 ± 0.50 µg/mL
  Metformin base concentration in plasma, 1 h post-administration: 11.56 ± 2.71 µg/mL
  Metformin base concentration in plasma, 2 h post-administration: 12.90 ± 2.38 µg/mL
  Metformin base concentration in plasma, 4 h post-administration: 13.70 ± 2.55 µg/mL
  Metformin base concentration in plasma, 8 h post-administration: 4.79 ± 0.38 µg/mL
  Metformin base concentration in plasma, 24 h post-administration: 0.21 ± 0.09 µg/mL
[2]; 750 mg/kg for five days
  macroscopic necropsy findings: small additional lobe
[2]; Groups B-K, 250 mg/kg
  Body weight (g) On administration day: 193.85 ± 7.65 g
  Body weight (g) On distribution day: 186.67 ± 11.37 g
[2]; Groups L-U, 750 mg/kg
  Body weight (g) On distribution day: 190.28 ± 6.26 g
[2]; [11]
  Body weight (g) On first administration day: 206.48 ± 10.52 g
[2]; [12]
  Body weight (g) On first administration day: 194.90 ± 4.71 g
[3]
  plasma glucose levels at the time of sacrifice: significantly higher
[4]; listed as 14. VALINE
  Physical form (hygroscopicity): Hygroscopic solid
[4]; listed as valine
  Physical form (hygroscopicity): hygroscopic
[8]
  mortality: found dead on the day 9 of study
[5]
  Absolute body weight, Day −3 (before STZ administration): 233.50 ± 9.71 g
  Absolute body weight, Day −1: 213.90 ± 16.31 g
  Absolute body weight, Day −2 (distribution of groups): 217.43 ± 14.43 g
[6]; [13]
  Blood glucose level, 0.25 h post-glucose overload: 102.50 ± 12.07 mg/dL
  Blood glucose level, 4 h post-glucose overload: 86.50 ± 10.15 mg/dL
  Blood glucose level, pre-glucose overload: 90.25 ± 3.86 mg/dL
[6]; [14]
  Blood glucose level, 0.5 h post-glucose overload: 101.00 ± 14.90 mg/dL
  Blood glucose level, 2 h post-glucose overload: 97.00 ± 14.54 mg/dL
  Blood glucose level, 3 h post-glucose overload: 93.50 ± 18.91 mg/dL
  Blood glucose level, 6 h post-glucose overload: 92.75 ± 5.56 mg/dL
[6]; rat, 750 mg/kg referred to metformin base, 1 h post-glucose overload, mean ± SD, *p<0.05 vs vehicle
  Blood glucose level, 1 h post-glucose overload: 100.25 ± 15.44 mg/dL
[7]
  Blood glucose levels before TI/RI administration, Day −1: 592.00^§ ± n.d.^§ mg/dL
  Blood glucose levels before TI/RI administration, Day −3 (before STZ administration): 120.00 ± 1.73 mg/dL
[7]; diabetic rats, 250 mg/kg as metformin base
  blood glucose levels 2 hours after administration on day 2 vs diabetic animals treated with vehicle: significantly lower blood glucose levels

## CN(C)C(=N)N=C(N)N [metformin, 3-(diaminomethylidene)-1,1-Dimethylguanidine]
[9]
  LKB1 autophosphorylation and STRADα phosphorylation: trigger a discrete LKB1 autophosphorylation
[10]
  GLUT4 distribution: levels lower than insulin
